Experimental data taken from US20230085307A1, “PYRIDAZINONE COMPOUND AND HERBICIDE” (NISSAN CHEMICAL CORPORATION, priority 2019, published 2023).

Experiments:
Chinese sprangletop = assay: Test Example 3: herbicidal effect by foliage application, Wagner pot (Table 18, symbol D); type: in vivo, chinese sprangletop (Leptochloa chinensis); conditions: amount of applied herbicide 320 g/ha
How it was run: (§1)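 Plants were sown in alluvial soil held under 0.1–0.5 cm standing water and grown 14 days in a greenhouse at 25–30 °C. An emulsifiable formulation, water-diluted to the set dose, was then sprayed onto the foliage, and effects were scored three weeks later using previously defined criteria.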

Japanese bulrush = assay: Test Example 1: herbicidal activity, application before weed generation under submerged conditions (Table 16, symbol B); type: in vivo, Japanese bulrush (Schoenoplectus juncoides); conditions: 320 g/ha applied herbicide
How it was run: (§2)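 Alluvial soil was flooded to 4 cm depth, weed seeds were sown mixed and 2.5-leaf rice seedlings were transplanted. On sowing day, the compound's emulsion, diluted in water to a set dose, was applied to the water surface. Plants grew at 25–30 °C and were scored 0–5 after three weeks.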

barnyard grass [1] = assay: Test Example 4: herbicidal effect by soil treatment (Table 19, symbol H); type: in vivo, barnyard grass (Echinochloa crus-galli); conditions: amount of applied herbicide 320 g/ha
How it was run: (§3)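 Step 1: sow seeds in sterilized diluvial soil, cover ~1.5 cm. Step 2: spray diluted emulsion onto soil surface at predetermined rate. Step 3: greenhouse, 25–30° C, three weeks. Step 4: grade effect on each plant by earlier criteria.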

blackgrass = assay: Test Example 4: herbicidal effect by soil treatment (Table 19, symbol J); type: in vivo, blackgrass (Alopecurus myosuroides); conditions: amount of applied herbicide 320 g/ha
How it was run: as §3

Italian ryegrass = assay: Test Example 4: herbicidal effect by soil treatment (Table 19, symbol K); type: in vivo, Italian ryegrass (Lolium multiflorum); conditions: amount of applied herbicide 320 g/ha
How it was run: as §3

green foxtail = assay: Test Example 4: herbicidal effect by soil treatment (Table 19, symbol G); type: in vivo, green foxtail (Setaria viridis); conditions: amount of applied herbicide 320 g/ha
How it was run: as §3

windgrass = assay: Test Example 4: herbicidal effect by soil treatment (Table 19, symbol L); type: in vivo, windgrass (Apera spica-venti); conditions: amount of applied herbicide 320 g/ha
How it was run: as §3

redroot pigweed = assay: Test Example 4: herbicidal effect by soil treatment (Table 19, symbol N); type: in vivo, redroot pigweed (Amaranthus retroflexus); conditions: amount of applied herbicide 320 g/ha
How it was run: as §3

barnyard grass [2] = assay: Test Example 3: herbicidal effect by foliage application, Wagner pot (Table 18, symbol H); type: in vivo, barnyard grass (Echinochloa crus-galli); conditions: amount of applied herbicide 320 g/ha
How it was run: as §1

wild oat = assay: Test Example 4: herbicidal effect by soil treatment (Table 19, symbol I); type: in vivo, wild oat (Avena fatua); conditions: amount of applied herbicide 320 g/ha
How it was run: as §3

southern crabgrass = assay: Test Example 4: herbicidal effect by soil treatment (Table 19, symbol F); type: in vivo, southern crabgrass (Digitaria ciliaris); conditions: amount of applied herbicide 320 g/ha
How it was run: as §3

velvetleaf = assay: Test Example 4: herbicidal effect by soil treatment (Table 19, symbol M); type: in vivo, velvetleaf (Abutilon theophrasti); conditions: amount of applied herbicide 320 g/ha
How it was run: as §3

persian speedwell = assay: Test Example 4: herbicidal effect by soil treatment (Table 19, symbol R); type: in vivo, Persian speedwell (Veronica persica); conditions: amount of applied herbicide 320 g/ha
How it was run: as §3

rice flat sedge = assay: Test Example 3: herbicidal effect by foliage application, Wagner pot (Table 18, symbol E); type: in vivo, rice flat sedge (Cyperus iria); conditions: amount of applied herbicide 320 g/ha
How it was run: as §1

late watergrass = assay: Test Example 1: herbicidal activity, application before weed generation under submerged conditions (Table 16, symbol A); type: in vivo, late watergrass (Echinochloa oryzicola); conditions: 320 g/ha applied herbicide
How it was run: as §2

lambsquarters = assay: Test Example 4: herbicidal effect by soil treatment (Table 19, symbol O); type: in vivo, lambsquarters (Chenopodium album); conditions: amount of applied herbicide 320 g/ha
How it was run: as §3

oval-leafed pondweed = assay: Test Example 1: herbicidal activity, application before weed generation under submerged conditions (Table 16, symbol C); type: in vivo, oval-leafed pondweed (Monochoria vaginalis); conditions: 320 g/ha applied herbicide
How it was run: as §2

chickweed = assay: Test Example 4: herbicidal effect by soil treatment (Table 19, symbol P); type: in vivo, common chickweed (Stellaria media); conditions: amount of applied herbicide 320 g/ha
How it was run: as §3

CCCC(=O)Oc1c(C)nn(C)c(=O)c1-c1c(-c2cnccc2Cl)sc2ccc(F)cc12 [2-386]
herbicidal effect on D: Chinese sprangletop (Chinese sprangletop): 4 (Herbicidal rate of 70% or more and less than 90%)
Herbicidal effect on B: Japanese bulrush (grade 0-5) (Japanese bulrush): 0 (Herbicidal rate of 5% or less (almost no effect))
herbicidal effect, H: barnyard grass (barnyard grass [1]): 4 (Herbicidal rate of 70% or more and less than 90%)
herbicidal effect, J: blackgrass (blackgrass): 0 (Herbicidal rate of 5% or less (almost no effect))
herbicidal effect, K: Italian ryegrass (Italian ryegrass): 4 (Herbicidal rate of 70% or more and less than 90%)
herbicidal effect, G: green foxtail (green foxtail): 3 (Herbicidal rate of 40% or more and less than 70%)
herbicidal effect, L: windgrass (windgrass): 2 (Herbicidal rate of 20% or more and less than 40%)
herbicidal effect, N: redroot pigweed (redroot pigweed): 4 (Herbicidal rate of 70% or more and less than 90%)
herbicidal effect on H: barnyard grass (barnyard grass [2]): 5 (Herbicidal rate of 90% or more (almost completely withered))
herbicidal effect, I: wild oat (wild oat): 1 (Herbicidal rate of 5% or more and less than 20%)
herbicidal effect, F: southern crabgrass (southern crabgrass): 4 (Herbicidal rate of 70% or more and less than 90%)
herbicidal effect, M: velvetleaf (velvetleaf): 1 (Herbicidal rate of 5% or more and less than 20%)
herbicidal effect, R: persian speedwell (persian speedwell): 5 (Herbicidal rate of 90% or more (almost completely withered))
herbicidal effect on E: rice flat sedge (rice flat sedge): 3 (Herbicidal rate of 40% or more and less than 70%)
Herbicidal effect on A: late watergrass (grade 0-5) (late watergrass): 2 (Herbicidal rate of 20% or more and less than 40%)
herbicidal effect, O: lambsquarters (lambsquarters): 4 (Herbicidal rate of 70% or more and less than 90%)
Herbicidal effect on C: oval-leafed pondweed (grade 0-5) (oval-leafed pondweed): 0 (Herbicidal rate of 5% or less (almost no effect))
herbicidal effect, P: chickweed (chickweed): 5 (Herbicidal rate of 90% or more (almost completely withered))
